Values joined by “and” are separate entries in the source; they are usually repeats but may differ in a detail not shown here. Equal values may be shown once.

The IC50 is the concentration that gives 50% inhibition. As usually defined, the viability, T/C is the ratio of treated to control.

The test system of this assay is OVCAR-5 complex spheroids, viability. Kind of assay: Anticancer human tumor OVCAR-5 cell line growth inhibition.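 For all read-outs here: spheroids exposed to agents for seven days.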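 For viability, T/C: 100% = DMSO vehicle control wells viability.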 To be noted: for viability, T/C: stronger effect = lower value. The gist of the method: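 Multicellular complex spheroids of tumor cells with human endothelial cells (HUVEC) and mesenchymal stem cells; the LSD1 inhibitor iadademstat was combined with standard-of-care or investigational agents. Top concentration at or near clinical Cmax, half-log dilutions; final DMSO ≤0.25%.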

[1] abbreviates: curve of first compound, second compound 0.1 µM.
Setting [2] is: curve of first compound, second compound 0.316 µM.
Setting [3] is: curve of first compound, second compound 1 µM.
Setting [4] is: curve of first compound, second compound 3.16 µM.
Setting [5] is: curve of first compound, second compound 10 µM.
[6] abbreviates: second compound 0.1 µM, first compound 0.0316 µM.
Where [7] appears, read: second compound 0.1 µM, first compound 0.1 µM.
[8] abbreviates: second compound 0.1 µM, first compound 0.316 µM.
[9] abbreviates: second compound 0.1 µM, first compound 1 µM.
[10] abbreviates: second compound 0.316 µM, first compound 0.0316 µM.
The mark [11] stands for this setting: second compound 0.316 µM, first compound 0.1 µM.
Where [12] appears, read: second compound 0.316 µM, first compound 0.316 µM.
Where [13] appears, read: second compound 0.316 µM, first compound 1 µM.
Where [14] appears, read: second compound 1 µM, first compound 0.0316 µM.
Where [15] appears, read: second compound 1 µM, first compound 0.1 µM.
The mark [16] stands for this setting: second compound 1 µM, first compound 0.316 µM.
Setting [17] is: second compound 1 µM, first compound 1 µM.
Where [18] appears, read: second compound 3.16 µM, first compound 0.0316 µM.
Where [19] appears, read: second compound 3.16 µM, first compound 0.1 µM.
[20] abbreviates: second compound 3.16 µM, first compound 0.316 µM.
[21] abbreviates: second compound 3.16 µM, first compound 1 µM.
Setting [22] is: second compound 10 µM, first compound 0.0316 µM.
[23] abbreviates: second compound 10 µM, first compound 0.1 µM.
[24] abbreviates: second compound 10 µM, first compound 0.316 µM.
Where [25] appears, read: second compound 10 µM, first compound 1 µM.

Take `CC1COCCN1c1cc(C2(S(C)(=N)=O)CC2)nc(-c2ccnc3[nH]ccc23)n1` (configuration not stated) + NC1CCC(NC2CC2c2ccccc2)CC1: the IC50 runs as follows: under setting [1], 2530 nM; under setting [2], 2620 nM; under setting [3], 3030 nM; under setting [4], 2700 nM; under setting [5], 2200 nM. In addition, the viability, T/C under setting [6] was 102%; the viability, T/C under setting [7] is 116%; the viability, T/C under setting [8] is 97.7%; the viability, T/C under setting [9] was 69.9%; the viability, T/C (second compound 0.1 µM, first compound 3.16 µM) was 47.4%; the viability, T/C (second compound 0.1 µM, first compound 10 µM) was 35.6%. The viability, T/C runs as follows: under setting [10], 108%; under setting [11], 103%; under setting [12], 94.7%; under setting [13], 70%; (second compound 0.316 µM, first compound 3.16 µM) 45.8%; (second compound 0.316 µM, first compound 10 µM) 37.2%. The viability, T/C under setting [14] was 109%; the viability, T/C under setting [15] was 99.5%; the viability, T/C under setting [16] is 97.8%; the viability, T/C under setting [17] is 70.9%; the viability, T/C (second compound 1 µM, first compound 3.16 µM) was 50.5%; the viability, T/C (second compound 1 µM, first compound 10 µM) is 36%. In addition, the viability, T/C by setting is: under setting [18], 104%; under setting [19], 106%; under setting [20], 97%; under setting [21], 70.2%; (second compound 3.16 µM, first compound 3.16 µM) 48.4%; (second compound 3.16 µM, first compound 10 µM) 37.1%. In addition, the viability, T/C under setting [22] is 84%; the viability, T/C under setting [23] was 82.4%; the viability, T/C under setting [24] was 79.2%; the viability, T/C under setting [25] is 61.3%; the viability, T/C (second compound 10 µM, first compound 3.16 µM) is 45.3%; the viability, T/C (second compound 10 µM, first compound 10 µM) is 34%.
In the case of `NC1CCC(NC2CC2c2ccccc2)CC1` (configuration not stated), the viability, T/C was 102% [middle of 25 runs] (compound 0.1 µM); 119% and 98.5% (compound 0.316 µM). Besides, the IC50 (compound alone, run of 11/29/2021) is over 10000 nM.
Consider `COc1cc(C2c3cc4c(cc3C(OC3OC5COC(C)OC5C(O)C3O)C3COC(=O)C23)OCO4)cc(OC)c1O` (configuration not stated), for which the viability, T/C is 108% and 107% (compound 0.00949 µM); 110% and 94.7% (compound 0.03 µM); 101% and 84.4% (compound 0.0949 µM); 69.6% and 60.9% (compound 0.3 µM); 44% and 35.2% (compound 0.949 µM); 39% and 33.6% (compound 3 µM). Moreover, the IC50 (curve of compound) is 718 nM and 501 nM.
For `CCN(c1cc(-c2ccc(CN3CCOCC3)cc2)cc(C(=O)NCc2c(C)cc(C)[nH]c2=O)c1C)C1CCOCC1`, the viability, T/C is 101% and 110% (compound 0.00949 µM); 102% and 107% (compound 0.03 µM); 104% and 103% (compound 0.0949 µM); 102% and 97.2% (compound 0.3 µM); 98.4% and 103% (compound 0.949 µM); 100% and 109% (compound 3 µM). For the same compound, for the setting “curve of compound”, the IC50 is over 3000 nM.
`O=C(c1cc(Cc2n[nH]c(=O)c3ccccc23)ccc1F)N1CCN(C(=O)C2CC2)CC1`: the viability, T/C reads like this: (compound 0.0316 µM) 92.2% and 111%; (compound 0.1 µM) 109% and 98.7%; (compound 0.316 µM) 95.8% and 102%; (compound 1 µM) 90.8% and 91.7%; (compound 3.16 µM) 87.7% and 73.7%; (compound 10 µM) 79.7% and 69.6%. For the same compound, the IC50 (curve of compound) is over 10000 nM.
`COc1ccc([C@@H](O)c2cc(-c3ncnc4cc(N5CCOCC5)ccc34)c(F)cc2Cl)nn1`: the viability, T/C is 92.1% and 91.6% (compound 0.0316 µM); 91.6% and 84.7% (compound 0.1 µM); 73.3% and 58.1% (compound 0.316 µM); 55.4% and 44.1% (compound 1 µM); 45.3% and 32.7% (compound 3.16 µM); 24.9% and 18.4% (compound 10 µM). Besides, the IC50 (curve of compound) is 1790 nM and 690 nM.
In the case of `COc1cc(Nc2ncc3c(n2)-c2ccc(Cl)cc2C(c2c(F)cccc2OC)=NC3)ccc1C(=O)O` + NC1CCC(NC2CC2c2ccccc2)CC1, the concentration for half-maximal inhibition (IC50) is over 1000 nM under setting [1]; over 1000 nM under setting [2]; 999 nM under setting [3]; over 1000 nM under setting [4]; over 1000 nM under setting [5]. For the same compound, the viability, T/C is 103% (second compound 0.1 µM, first compound 0.00316 µM); 99.1% (second compound 0.1 µM, first compound 0.01 µM); 83.5% under setting [6]; 61% under setting [7]; 64.1% under setting [8]; 54.6% under setting [9]. The viability, T/C (second compound 0.316 µM, first compound 0.00316 µM) was 94.5%; the viability, T/C (second compound 0.316 µM, first compound 0.01 µM) was 93.2%; the viability, T/C under setting [10] is 78.4%; the viability, T/C under setting [11] was 64%; the viability, T/C under setting [12] was 57.3%; the viability, T/C under setting [13] was 56.6%. The viability, T/C is, setting by setting: (second compound 1 µM, first compound 0.00316 µM) 87.3%; (second compound 1 µM, first compound 0.01 µM) 90.3%; under setting [14], 80.2%; under setting [15], 62.7%; under setting [16], 59.8%; under setting [17], 47.4%. The viability, T/C runs as follows: (second compound 3.16 µM, first compound 0.00316 µM) 83.6%; (second compound 3.16 µM, first compound 0.01 µM) 83.7%; under setting [18], 75.2%; under setting [19], 59.3%; under setting [20], 60.7%; under setting [21], 52.5%. Further, the viability, T/C reads like this: (second compound 10 µM, first compound 0.00316 µM) 83.5%; (second compound 10 µM, first compound 0.01 µM) 78.7%; under setting [22], 79.7%; under setting [23], 57.6%; under setting [24], 55.8%; under setting [25], 45.5%.
As for `Nc1ncn(C2CC(O)C(CO)O2)c(=O)n1` (configuration not stated), the viability, T/C is 93.5% and 108% (compound 0.00316 µM); 94% and 87.9% (compound 0.01 µM); 88.2% and 75.7% (compound 0.0316 µM); 77.1% and 76.2% (compound 0.1 µM); 72.5% and 69% (compound 0.316 µM); 72.5% and 69.2% (compound 1 µM). Moreover, the IC50 (curve of compound) was over 1000 nM.
Take `CC[C@@]1(O)C(=O)OCc2c1cc1n(c2=O)Cc2cc3c(CN(C)C)c(O)ccc3nc2-1`: the viability, T/C was 102% and 99% (compound 0.000316 µM); 93% and 93.4% (compound 0.001 µM); 57% and 47.1% (compound 0.00316 µM); 46.6% and 31.7% (compound 0.01 µM); 47.1% and 34.3% (compound 0.0316 µM); 24% and 18.9% (compound 0.1 µM). Besides, the IC50 (curve of compound) is 8.81 nM and 2.98 nM.
For the compound `CC1COCCN1c1cc(C2(S(C)(=N)=O)CC2)nc(-c2ccnc3[nH]ccc23)n1` (configuration not stated), the viability, T/C by setting is: (compound 0.0316 µM) 106% and 102%; (compound 0.1 µM) 110% and 101%; (compound 0.316 µM) 90.1% and 76%; (compound 1 µM) 57.5% and 48.9%; (compound 3.16 µM) 41.4% and 34.1%; (compound 10 µM) 35.5% and 25.4%. Also, the IC50 (curve of compound) was 1640 nM and 957 nM.

The values above are taken from PubChem BioAssay AID1918956 (Molecular Pharmacology Branch, DTP, NCI, 2023).
